In patent US20240294569A1, “MODULATORS OF SORTILIN ACTIVITY” (Insusense ApS, priority 2021, published 2024):
pIC50: −log10 of the molar value. Peptide text beside a SMILES is read from it.

Each compound was assayed against T1, hSortilin (Homo sapiens, UniProt Q99523) (assay: Neurotensin scintillation proximity assay (displacement of [3H]-neurotensin binding)). Settings: displacement of 5 nM [3H]-neurotensin from 150 nM 6his-Sortilin; average of at least 2 determinations; read-out: IC50 [3H]Neurotensin SPA.
T1 sequence (Q99523 78-831): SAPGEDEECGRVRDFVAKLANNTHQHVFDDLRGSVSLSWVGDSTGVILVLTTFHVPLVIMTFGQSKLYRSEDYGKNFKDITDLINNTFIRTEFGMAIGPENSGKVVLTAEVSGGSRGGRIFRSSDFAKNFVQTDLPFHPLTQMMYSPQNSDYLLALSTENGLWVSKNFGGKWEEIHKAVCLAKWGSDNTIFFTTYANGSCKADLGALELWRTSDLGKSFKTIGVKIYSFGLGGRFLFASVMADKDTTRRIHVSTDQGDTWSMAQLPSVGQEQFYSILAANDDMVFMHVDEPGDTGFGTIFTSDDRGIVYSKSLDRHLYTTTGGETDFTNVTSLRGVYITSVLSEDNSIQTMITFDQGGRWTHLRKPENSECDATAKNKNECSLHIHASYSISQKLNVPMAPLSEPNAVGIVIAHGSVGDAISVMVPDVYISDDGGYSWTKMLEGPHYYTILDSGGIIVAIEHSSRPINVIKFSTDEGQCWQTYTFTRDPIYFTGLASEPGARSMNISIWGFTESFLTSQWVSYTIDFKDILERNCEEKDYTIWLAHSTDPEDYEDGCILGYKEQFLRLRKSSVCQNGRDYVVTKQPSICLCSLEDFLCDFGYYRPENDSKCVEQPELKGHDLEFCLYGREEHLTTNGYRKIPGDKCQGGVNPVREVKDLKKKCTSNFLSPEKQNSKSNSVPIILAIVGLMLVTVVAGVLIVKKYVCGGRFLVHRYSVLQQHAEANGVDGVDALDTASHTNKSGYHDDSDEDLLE
Experimental: The data of exemplified compounds of the invention tested in a Neurotensin (NTS) scintillation proximity assay (SPA). NTS, which is a 13 amino acid neuropeptide, is a sortilin ligand. The IC50 is a measure of the amount of the compound required to inhibit the binding of NTS to sortilin by 50%.
Compound affinity was determined by measuring the displacement of [^3H]-neurotensin binding to hSortilin in SPA format. Total volume of 40 μl in 50 mM HEPES pH 7.4 assay buffer containing 100 mM NaCl, 2.0 mM CaCl2, 0.1% BSA and 0.1% Tween-20. Compound pre-incubation for 30 minutes at room temperature with 150 nM of 6his-Sortilin before 5 nM [3H]-Neurotensin and Ni chelate imaging beads (Perkin Elmer) were added, after 6 hours the plate was read on a ViewLux with 360 s exposure time. Dose-response evaluation of compounds was performed with 8 concentrations of drugs (covering 3 decades). IC50 values were calculated by nonlinear regression using the sigmoid concentration-response (variable slope) using CDD Vault software. All values reported are average of at least 2 determinations.

Structure (SMILES) | pIC50
CC[C@H](C)[C@H](NC(=O)[C@H](Cc1ccc(O)cc1)NC(=O)[C@@H]1CCCO1)C(=O)N[C@@H](CCC(F)(F)F)C(=O)O [Example 1, (S)-5,5,5-Trifluoro-2-((2S,3S)-2-((S)-3-(4-hydroxyphenyl)-2-((S)-tetrahydrofuran-2-carboxamido)propanamido)-3-methylpentanamido)pentanoic acid] | 5.50
CC[C@H](C)[C@H](NC(=O)[C@H](Cc1ccc(O)cc1)NC(=O)[C@H]1CCCO1)C(=O)N[C@@H](CCC(F)(F)F)C(=O)O [Example 2, (2S)-5,5,5-trifluoro-2-[(2S,3S)-2-[(S)-3-(4-hydroxyphenyl)-2-{[(2R)-oxolan-2-yl]formamido}propanamido]-3-methylpentanamido] pentoic acid] | 5.54
CC(C)(C)CC[C@H](NC(=O)[C@H](Cc1ccccn1)NC(=O)[C@H](Cc1ccc(O)cc1)NC(=O)[C@@H]1CCCN1)C(=O)O [Example 5, (S)-2-((S)-2-((S)-3-(4-Hydroxyphenyl)-2-((S)-pyrrolidine-2-carboxamido)propanamido)-3-(pyridin-2-yl)propanamido)-5,5-dimethylhexanoic acid] (HELM PEPTIDE1{P.Y.[O=C([C@H](Cc1ccccn1)N[*:1])[*:2]].[CC(C)(C)CC[C@H](N[*:1])C(=O)O]}$$$$V2.0) | 6.57
CC(C)(C)CC[C@H](NC(=O)[C@H](Cc1cscn1)NC(=O)[C@H](CC(N)=O)NC(=O)[C@@H]1CCCN1)C(=O)O [Example 10, (S)-2-((S)-2-((S)-4-Amino-4-oxo-2-((S)-pyrrolidine-2-carboxamido)butan-amido)-3-(thiazol-4-yl)propanamido)-5,5-dimethylhexanoic acid] (HELM PEPTIDE1{P.N.[O=C([C@H](Cc1cscn1)N[*:1])[*:2]].[CC(C)(C)CC[C@H](N[*:1])C(=O)O]}$$$$V2.0) | 7.05
CC(C)(C)CC[C@H](NC(=O)[C@H](Cc1cscn1)NC(=O)[C@H](CCC(N)=O)NC(=O)[C@@H]1CCCN1)C(=O)O [Example 11, (S)-2-((S)-2-((S)-5-Amino-5-oxo-2-((S)-pyrrolidine-2-carboxamido)pentan amido)-3-(thiazol-4-yl)propanamido)-5,5-dimethylhexanoic acid] (HELM PEPTIDE1{P.Q.[O=C([C@H](Cc1cscn1)N[*:1])[*:2]].[CC(C)(C)CC[C@H](N[*:1])C(=O)O]}$$$$V2.0) | 7.22
CC(C)(C)CC[C@H](NC(=O)[C@H](Cc1cscn1)NC(=O)[C@H](Cc1ccc(O)cc1)NC(=O)[C@@H]1CCCN1)C(=O)O [Example 12, (S)-2-((S)-2-((S)-3-(4-Hydroxyphenyl)-2-((S)-pyrrolidine-2-carboxamido)propan amido)-3-(thiazol-4-yl)propanamido)-5,5-dimethylhexanoic acid] (HELM PEPTIDE1{P.Y.[O=C([C@H](Cc1cscn1)N[*:1])[*:2]].[CC(C)(C)CC[C@H](N[*:1])C(=O)O]}$$$$V2.0) | 7.15
CC(C)(C)CC[C@H](NC(=O)[C@H](CN1CCOCC1)NC(=O)[C@H](Cc1ccc(O)cc1)NC(=O)[C@@H]1CCCN1)C(=O)O [Example 13, (S)-2-((S)-2-((S)-3-(4-Hydroxyphenyl)-2-((S)-pyrrolidine-2-carboxamido)propan amido)-3-morpholinopropan-amido)-5,5-dimethylhexanoic acid] (HELM PEPTIDE1{P.Y.[O=C([C@H](CN1CCOCC1)N[*:1])[*:2]].[CC(C)(C)CC[C@H](N[*:1])C(=O)O]}$$$$V2.0) | 6.80
CC(C)(C)CC[C@H](NC(=O)[C@H](Cc1c[nH]c2ccccc12)NC(=O)[C@H](Cc1ccc(O)cc1)NC(=O)[C@@H]1CCCN1)C(=O)O [Example 14, (S)-2-((S)-2-((S)-3-(4-Hydroxyphenyl)-2-((S)-pyrrolidine-2-carboxamido)propan amido)-3-(1H-indol-3-yl)propanamido)-5,5-dimethylhexanoic acid] (HELM PEPTIDE1{P.Y.W.[CC(C)(C)CC[C@H](N[*:1])C(=O)O]}$$$$V2.0) | 7.22

Continued by rising pIC50, values first:

pIC50 | Structure (SMILES)
5.77 | CC[C@H](C)[C@H](NC(=O)[C@H](Cc1ccc(O)cc1)NC(=O)[C@H]1CN(C(C)=O)CCO1)C(=O)N[C@@H](CCC(F)(F)F)C(=O)O [Example 4, (S)-2-((2S,3S)-2-((S)-2-((R)-4-Acetylmorpholine-2-carboxamido)-3-(4-hydroxyphenyl)propanamido)-3-methylpentanamido)-5,5,5-trifluoropentanoic acid]
5.95 | CC[C@H](C)[C@H](NC(=O)[C@H](Cc1ccc(O)cc1)NC(C)=O)C(=O)N[C@@H](CCC(F)(F)F)C(=O)O [Example 3, (S)-2-((2S,3S)-2-((S)-2-Acetamido-3-(4-hydroxyphenyl)propanamido)-3-methylpentanamido)-5,5,5-trifluoropentanoic acid]
6.43 | Cn1cnc(C[C@H](NC(=O)[C@H](Cc2ccc(O)cc2)NC(=O)[C@@H]2CCCN2)C(=O)N[C@@H](CCC(C)(C)C)C(=O)O)c1 [Example 7, (S)-2-((S)-2-((S)-3-(4-Hydroxyphenyl)-2-((S)-pyrrolidine-2-carboxamido)propan amido)-3-(1-methyl-1H-imidazol-4-yl)propanamido)-5,5-dimethylhexanoic acid] (HELM PEPTIDE1{P.Y.[Cn1cnc(C[C@H](N[*:1])C(=O)[*:2])c1].[CC(C)(C)CC[C@H](N[*:1])C(=O)O]}$$$$V2.0)
6.70 | CC(C)(C)CC[C@H](NC(=O)[C@H](Cc1ccncc1)NC(=O)[C@H](Cc1ccc(O)cc1)NC(=O)[C@@H]1CCCN1)C(=O)O [Example 8, (S)-2-((S)-2-((S)-3-(4-Hydroxyphenyl)-2-((S)-pyrrolidine-2-carboxamido)propan amido)-3-(pyridin-4-yl)propanamido)-5,5-dimethylhexanoic acid] (HELM PEPTIDE1{P.Y.[O=C([C@H](Cc1ccncc1)N[*:1])[*:2]].[CC(C)(C)CC[C@H](N[*:1])C(=O)O]}$$$$V2.0)
6.85 | CC(C)(C)CC[C@H](NC(=O)[C@H](Cc1ccsc1)NC(=O)[C@H](Cc1ccc(O)cc1)NC(=O)[C@@H]1CCCN1)C(=O)O [Example 9, (S)-2-((S)-2-((S)-3-(4-Hydroxyphenyl)-2-((S)-pyrrolidine-2-carboxamido)propan amido)-3-(thiophen-3-yl)propanamido)-5,5-dimethylhexanoic acid] (HELM PEPTIDE1{P.Y.[O=C([C@H](Cc1ccsc1)N[*:1])[*:2]].[CC(C)(C)CC[C@H](N[*:1])C(=O)O]}$$$$V2.0)
7.05 | CC(C)(C)CC[C@H](NC(=O)[C@H](Cc1cccnc1)NC(=O)[C@H](Cc1ccc(O)cc1)NC(=O)[C@@H]1CCCN1)C(=O)O [Example 6, (S)-2-((S)-2-((S)-3-(4-Hydroxyphenyl)-2-((S)-pyrrolidine-2-carboxamido)propan amido)-3-(pyridin-3-yl)propanamido)-5,5-dimethylhexanoic acid] (HELM PEPTIDE1{P.Y.[O=C([C@H](Cc1cccnc1)N[*:1])[*:2]].[CC(C)(C)CC[C@H](N[*:1])C(=O)O]}$$$$V2.0)
7.10 | CC[C@H](C)[C@H](NC(=O)CNC(=O)[C@@H]1CCCN1)C(=O)N[C@@H](CCC(C)(C)C)C(=O)O [Example 16, (2S)-5,5-Dimethyl-2-((3S)-3-methyl-2-(2-((S)-pyrrolidine-2-carboxamido)acetamido)pentanamido) hexanoic acid] (HELM PEPTIDE1{P.G.I.[CC(C)(C)CC[C@H](N[*:1])C(=O)O]}$$$$V2.0)
